Values of other authors, collected in patent US12226503B2, “Prebiotic skin care compositions containing carboxylic acids” (priority 2019, dated 2025).

Settings: toxic or irritant for humans or on skin

Row | Molecule | Toxicity
1 | O=C(O)CC(O)C(=O)O (racemic) [D,L-Malic acid] | +
2 | CCC(N)C(=O)O (racemic) [D,L-α-amino-N-butyric acid] | +
3 | CCCCCCC(N)C(=O)O (racemic) [D,L-α-amino-caprylic acid] | +
4 | O=C(O)c1ccc(O)cc1 [4-hydroxybenzoic acid] | +
5 | O=C(O)[C@@H](O)[C@@H](O)[C@H](O)[C@@H](O)C(=O)O [D-saccharic acid] | +
6 | COc1cc(/C=C/C(=O)O)ccc1O [Ferulic acid] | +
7 | O=C(O)/C=C/C(=O)O [Fumaric acid] | +
8 | O=C(O)c1cc(O)c(O)c(O)c1 [Gallic acid] | +
9 | O=CC(=O)O [Glyoxylic acid] | +
10 | O=C(O)CNC(=O)c1ccccc1 [Hippuric acid] | +
11 | C[C@H](O)C(=O)O [L-lactic acid] | +
12 | O=C(O)[C@@H](O)[C@H](O)[C@H](O)[C@@H](O)C(=O)O [Mucic acid] | +
13 | CC(=O)N[C@H]1[C@H]([C@H](O)[C@H](O)CO)O[C@](O)(C(=O)O)C[C@@H]1O [N-acetyl-neuraminic acid] | +
14 | CCCCCCCCCCCCCCCCCC(=O)O [Stearic acid] | +
15 | O=C(O)C(CO)c1ccccc1 (stereo not shown) [Tropic acid] | +
16 | CC(O)CC(=O)O (stereo not drawn) [β-hydroxybutyric acid] | +
17 | NCCCC(=O)O [γ-Aminobutyric acid] | +
18 | NCCCCCC(=O)O [ε-Amino-N-caproic acid] | +
19 | Citric acid | +
